The values that follow come from patent publication US9617267B2, “Compounds and methods for kinase modulation, and indications therefor” (Plexxikon Inc., priority 2009, dated 2017).

Data set [1] concerns the target B-Raf (Homo sapiens (Human), UniProt P15056). In words: B-Raf kinase activity biochemical assay (AlphaScreen, biotin-MEK1 phosphorylation). Particulars: B-Raf. In outline: (§1)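 Compounds from a 0.1 mM DMSO stock were tested at 8 serially diluted points. Kinase reactions with 100 μM ATP (final) ran 45 min at room temperature, then were stopped with EDTA buffer containing anti-phospho-MEK1/2 antibody plus streptavidin donor and protein A acceptor beads.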
(In general: Alpha assays give light when donor and acceptor beads are brought close together.)

For data set [2], the system named is B-Raf. The description is as above. Conditions: for Biochemical activity ratio B/V600E: ratio of IC50 B-Raf / B-Raf V600E; for Biochemical activity ratio B/C: ratio of IC50 B-Raf / c-Raf-1. The essentials:
as §1

Another data set concerns the target B-Raf V600E (Homo sapiens (Human), UniProt P15056, V600E). In words: B-Raf V600E kinase activity biochemical assay (AlphaScreen, biotin-MEK1 phosphorylation). Particulars: for IC50: B-Raf V600E; for Biochemical activity ratio V600E/C: ratio of IC50 B-Raf V600E / c-Raf-1. In outline: as §1
For a further data set, the target named is c-Raf-1 (Homo sapiens, UniProt P04049). In words: c-Raf-1 kinase activity biochemical assay (AlphaScreen, biotin-MEK1 phosphorylation). The essentials:
as §1

The nature of data set [3]: Relative solubility by turbidity threshold concentration in aqueous buffers (pH 1.5, 4.5, 6.8, 7.4). The data set is classed as physicochemical. Conditions: for turbidity threshold (L, M, H) 1.4: pH 1.4 [sic] (method: SGF pH 1.5); for turbidity threshold (L, M, H) 4.5: pH 4.5 (SIF); for turbidity threshold (L, M, H) 6.8: pH 6.8 (SIF); for turbidity threshold (L, M, H) 7.4: pH 7.4 (HEPES). In outline: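 Solubility class (high >250 μM, moderate 31.3–250 μM, low <31.3 μM) comes from the concentration where absorbance reaches a 0.01 threshold, averaged across 490/535/650 nm. Samples were compound dilutions from DMSO stock, 1 μL into 99 μL buffer at pH 1.5, 4.5, 6.8 or 7.4.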

Another data set deals with CYP1A2 (Homo sapiens (Human), UniProt P05177). In words: CYP enzyme inhibition, fluorescent substrate (CEC). The essentials:
(§2)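 IC50 derived from loss of fluorescent metabolite across a 10-point 1:1 dilution series. CYP2D6: 1.5 pmol enzyme, 1.5 μM AMMC, 30 min at 37 °C, 409/530 nm; CYP1A2: 0.5 pmol, 5 μM CEC, 15 min, 409/460 nm. Compounds pre-incubated 10 min in NADPH-regenerating mix.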

The target in the next data set is CYP2C19 (Homo sapiens (Human), UniProt P33261). In words: CYP enzyme inhibition, fluorescent substrate (CEC). The essentials: (§3)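 10-pt 1:1 serial dilution in co-factor mix (DMSO stock 100 mM); 10 min preincubation, 37 °C; reaction at 37 °C. Readout: fluorescent metabolite of probe substrate. IC50 from signal vs [compound].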
The next data set addresses CYP2C9 (Homo sapiens (Human), UniProt P11712). In words: CYP enzyme inhibition, fluorescent substrate (MFC). The essentials: as §3
Another data set deals with CYP2D6 (Homo sapiens (Human), UniProt P10635). Kind of data set: CYP enzyme inhibition, fluorescent substrate (AMMC). The data set is classed as in vitro ADME. Particulars: read-out: Cyp IC50 2D6. In outline:
as §2

In another data set the target is CYP3A4(BFC) (Homo sapiens (Human), UniProt P08684). In words: CYP enzyme inhibition, fluorescent substrate BFC. In outline: as §3
The target in another data set is CYP3A4(BQ) (Homo sapiens (Human), UniProt P08684). In words: CYP enzyme inhibition, fluorescent substrate BQ. Conditions: read-out: Cyp IC50 3A4(BQ); CYP3A4, substrate BQ. In outline: as §3
The mark [4] stands for this setting: read-out: Cyp IC50 2C19, CYP2C19, substrate CEC.
[5] abbreviates: read-out: Cyp IC50 3A4(BFC), CYP3A4, substrate BFC.
The mark [6] stands for this setting: read-out: Cyp IC50 2C9, CYP2C9, substrate MFC.

Each structure is given as a SMILES string. Where two headings read alike, the source gives them in different places.

Sequence of CYP1A2 (P05177 whole entry): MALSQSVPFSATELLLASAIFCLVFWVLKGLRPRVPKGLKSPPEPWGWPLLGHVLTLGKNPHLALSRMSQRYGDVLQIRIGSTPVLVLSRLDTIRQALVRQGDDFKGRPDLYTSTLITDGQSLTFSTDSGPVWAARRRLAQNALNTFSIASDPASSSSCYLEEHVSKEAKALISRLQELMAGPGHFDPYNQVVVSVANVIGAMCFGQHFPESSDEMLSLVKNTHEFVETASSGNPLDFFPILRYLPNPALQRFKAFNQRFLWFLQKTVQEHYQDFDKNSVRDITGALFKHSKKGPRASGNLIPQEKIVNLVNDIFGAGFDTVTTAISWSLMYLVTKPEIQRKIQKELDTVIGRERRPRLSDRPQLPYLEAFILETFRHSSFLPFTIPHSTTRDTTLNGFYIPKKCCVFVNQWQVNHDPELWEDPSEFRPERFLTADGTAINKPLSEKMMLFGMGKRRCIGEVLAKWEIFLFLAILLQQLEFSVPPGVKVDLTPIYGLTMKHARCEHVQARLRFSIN
Sequence of CYP3A4(BQ) (P08684 whole entry): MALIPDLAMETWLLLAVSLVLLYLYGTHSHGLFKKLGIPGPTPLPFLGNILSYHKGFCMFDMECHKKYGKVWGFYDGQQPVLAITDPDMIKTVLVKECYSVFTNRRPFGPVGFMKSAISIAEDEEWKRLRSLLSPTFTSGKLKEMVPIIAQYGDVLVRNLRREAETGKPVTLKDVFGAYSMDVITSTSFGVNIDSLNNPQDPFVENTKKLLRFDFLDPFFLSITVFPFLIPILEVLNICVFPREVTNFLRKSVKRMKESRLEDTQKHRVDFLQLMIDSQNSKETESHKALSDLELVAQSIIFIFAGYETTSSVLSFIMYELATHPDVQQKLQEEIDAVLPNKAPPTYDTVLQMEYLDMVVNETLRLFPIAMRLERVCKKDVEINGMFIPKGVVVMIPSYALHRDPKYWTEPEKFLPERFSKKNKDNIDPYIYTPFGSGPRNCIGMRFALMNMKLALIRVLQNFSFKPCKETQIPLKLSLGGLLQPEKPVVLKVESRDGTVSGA
Sequence of CYP3A4(BFC) (P08684 whole entry): as above
Sequence of B-Raf V600E (P15056 whole entry V600E): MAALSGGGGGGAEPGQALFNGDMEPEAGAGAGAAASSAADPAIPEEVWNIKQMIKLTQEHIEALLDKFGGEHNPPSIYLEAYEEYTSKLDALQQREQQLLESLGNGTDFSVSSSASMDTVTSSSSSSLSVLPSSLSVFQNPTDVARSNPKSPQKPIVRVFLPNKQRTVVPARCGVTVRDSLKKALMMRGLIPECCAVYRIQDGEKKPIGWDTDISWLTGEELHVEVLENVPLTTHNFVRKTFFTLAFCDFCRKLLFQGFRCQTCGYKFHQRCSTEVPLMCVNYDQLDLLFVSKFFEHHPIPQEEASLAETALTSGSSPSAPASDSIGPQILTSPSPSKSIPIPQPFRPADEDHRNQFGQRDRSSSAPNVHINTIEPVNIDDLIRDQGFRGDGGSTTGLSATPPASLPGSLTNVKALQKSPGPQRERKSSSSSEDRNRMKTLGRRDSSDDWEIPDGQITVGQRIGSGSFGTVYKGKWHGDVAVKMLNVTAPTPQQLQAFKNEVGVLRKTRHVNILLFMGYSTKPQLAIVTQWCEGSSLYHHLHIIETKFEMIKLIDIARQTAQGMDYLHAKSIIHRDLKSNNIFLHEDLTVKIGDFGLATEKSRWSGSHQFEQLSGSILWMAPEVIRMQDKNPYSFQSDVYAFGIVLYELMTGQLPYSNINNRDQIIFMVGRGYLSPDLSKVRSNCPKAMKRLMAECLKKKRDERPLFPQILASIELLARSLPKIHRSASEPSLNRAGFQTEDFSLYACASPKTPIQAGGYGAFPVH
Sequence of CYP2C19 (P33261 whole entry): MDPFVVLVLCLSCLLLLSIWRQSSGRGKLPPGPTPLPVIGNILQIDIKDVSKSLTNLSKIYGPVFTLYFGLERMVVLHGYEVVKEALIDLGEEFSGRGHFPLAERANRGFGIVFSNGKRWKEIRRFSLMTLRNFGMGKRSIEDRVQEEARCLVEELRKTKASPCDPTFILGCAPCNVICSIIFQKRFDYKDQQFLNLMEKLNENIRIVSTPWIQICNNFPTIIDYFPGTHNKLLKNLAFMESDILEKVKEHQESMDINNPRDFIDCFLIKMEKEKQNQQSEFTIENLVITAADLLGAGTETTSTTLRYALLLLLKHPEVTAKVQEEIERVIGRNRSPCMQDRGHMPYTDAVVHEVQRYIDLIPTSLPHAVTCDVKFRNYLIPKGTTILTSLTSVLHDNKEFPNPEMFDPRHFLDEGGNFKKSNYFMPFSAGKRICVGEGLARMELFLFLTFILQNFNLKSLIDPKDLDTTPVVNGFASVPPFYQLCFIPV
Sequence of c-Raf-1 (P04049 whole entry, looked up): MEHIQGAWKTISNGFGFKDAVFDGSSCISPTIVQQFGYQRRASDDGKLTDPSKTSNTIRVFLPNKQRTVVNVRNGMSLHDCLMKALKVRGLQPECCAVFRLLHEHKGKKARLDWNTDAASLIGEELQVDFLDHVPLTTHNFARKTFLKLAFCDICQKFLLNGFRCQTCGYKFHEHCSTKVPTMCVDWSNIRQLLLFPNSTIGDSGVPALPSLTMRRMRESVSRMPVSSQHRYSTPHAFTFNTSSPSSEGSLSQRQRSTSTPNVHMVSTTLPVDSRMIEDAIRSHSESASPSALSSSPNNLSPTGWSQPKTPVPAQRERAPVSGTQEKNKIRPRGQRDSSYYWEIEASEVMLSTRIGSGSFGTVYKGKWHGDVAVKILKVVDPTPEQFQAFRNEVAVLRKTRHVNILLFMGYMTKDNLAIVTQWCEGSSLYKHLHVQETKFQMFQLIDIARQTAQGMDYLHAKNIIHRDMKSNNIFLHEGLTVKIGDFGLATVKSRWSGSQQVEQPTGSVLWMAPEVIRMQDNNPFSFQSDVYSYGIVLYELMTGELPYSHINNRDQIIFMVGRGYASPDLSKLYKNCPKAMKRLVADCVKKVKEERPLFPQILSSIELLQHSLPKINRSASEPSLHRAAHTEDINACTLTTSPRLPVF
Sequence of CYP2D6 (P10635 whole entry): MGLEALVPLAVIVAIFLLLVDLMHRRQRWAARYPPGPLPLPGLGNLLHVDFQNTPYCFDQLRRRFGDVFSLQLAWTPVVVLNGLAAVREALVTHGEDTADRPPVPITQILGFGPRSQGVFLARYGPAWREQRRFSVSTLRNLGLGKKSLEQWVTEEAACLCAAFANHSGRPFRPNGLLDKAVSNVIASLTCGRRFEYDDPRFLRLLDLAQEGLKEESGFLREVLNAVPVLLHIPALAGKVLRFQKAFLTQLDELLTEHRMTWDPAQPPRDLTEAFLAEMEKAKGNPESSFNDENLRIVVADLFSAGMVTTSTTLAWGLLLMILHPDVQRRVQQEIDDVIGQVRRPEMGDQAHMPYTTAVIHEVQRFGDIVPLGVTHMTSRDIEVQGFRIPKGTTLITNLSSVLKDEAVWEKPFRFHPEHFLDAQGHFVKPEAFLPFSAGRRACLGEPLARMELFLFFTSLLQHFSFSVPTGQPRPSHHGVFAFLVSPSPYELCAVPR
Sequence of B-Raf (Homo sapiens (Human), UniProt P15056) (P15056 whole entry): as the sequence (P15056 whole entry V600E) above, with E600V counted along it
Sequence of CYP2C9 (P11712 whole entry): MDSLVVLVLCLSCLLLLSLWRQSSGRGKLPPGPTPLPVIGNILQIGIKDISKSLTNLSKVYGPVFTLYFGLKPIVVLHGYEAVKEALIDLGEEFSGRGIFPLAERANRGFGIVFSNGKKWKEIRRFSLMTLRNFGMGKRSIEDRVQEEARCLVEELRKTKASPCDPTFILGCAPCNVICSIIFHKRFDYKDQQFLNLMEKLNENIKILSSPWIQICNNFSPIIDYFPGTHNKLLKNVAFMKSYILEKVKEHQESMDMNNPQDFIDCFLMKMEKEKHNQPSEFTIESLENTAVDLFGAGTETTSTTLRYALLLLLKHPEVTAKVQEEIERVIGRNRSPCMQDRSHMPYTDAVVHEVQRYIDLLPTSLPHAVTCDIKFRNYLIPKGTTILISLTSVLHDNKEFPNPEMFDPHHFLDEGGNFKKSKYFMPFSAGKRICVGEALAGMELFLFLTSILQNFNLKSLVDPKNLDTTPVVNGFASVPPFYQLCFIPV

Broadly, the IC50 is the midpoint of a concentration-inhibition curve. For the molecule `O=C(c1c(F)ccc(NS(=O)(=O)c2ccc(C(F)(F)F)cc2)c1F)c1c[nH]c2ncnc(NC3CCOC3)c12` (stereo not drawn) [P-1054, N-{2,4-Difluoro-3-[4-(tetrahydro-furan-3-ylamino)-7H-pyrrolo[2,3-d]pyrimidine-5-carbonyl]-phenyl}-4-trifluoromethyl-benzenesulfonamide], the IC50 is under 0.1 µM against B-Raf [1]; under 0.1 µM against B-Raf V600E; under 0.1 µM on c-Raf-1; over 10 µM at CYP1A2 (human, 15 min); over 10 µM on CYP2C19 (setting [4]); 5 to 10 µM against CYP2C9. Also, the IC50 on CYP2D6, on CYP3A4(BFC) (setting [5]) and at CYP3A4(BQ) was over 10 µM each time. In addition, the “Biochemical activity ratio B/V600E” value with B-Raf [2] is 0.1-10. In addition, the “Biochemical activity ratio B/C” value in the data set with B-Raf [2] is 0.1-10. The “Biochemical activity ratio V600E/C” value on B-Raf V600E is over 10. For the same molecule, the “turbidity threshold (L, M, H) 1.4” value in data set [3] is “M (moderate solubility if the threshold concentration is 31.3 μM to 250 μM)”. Further, in data set [3], the “turbidity threshold (L, M, H) 4.5” value was “L (low solubility if the threshold concentration is <31.3 μM)”. For the same molecule, the “turbidity threshold (L, M, H) 6.8” value in data set [3] is reported as “L (low solubility if the threshold concentration is <31.3 μM)”. For the same molecule, in data set [3], the “turbidity threshold (L, M, H) 7.4” value is given as “L (low solubility if the threshold concentration is <31.3 μM)”.

As for `CCCc1ccc(S(=O)(=O)Nc2ccc(F)c(C(=O)c3c[nH]c4ncnc(NC5CCOCC5)c34)c2F)cc1` [P-1046, N-{2,4-Difluoro-3-[4-(tetrahydro-pyran-4-ylamino)-7H-pyrrolo[2,3-d]pyrimidine-5-carbonyl]-phenyl}-4-propyl-benzenesulfonamide], the IC50 at B-Raf [1] is under 0.1 µM; against B-Raf V600E, over 0.1 µM; against c-Raf-1, under 0.1 µM; against CYP1A2 (human, 15 min) it was over 10 µM; at CYP2C19 (setting [4]), over 10 µM; on CYP2C9 (setting [6]), over 10 µM. The IC50 on CYP2D6, on CYP3A4(BFC) (setting [5]) and at CYP3A4(BQ) was over 10 µM each time. In addition, the “Biochemical activity ratio B/V600E” value in the data set on B-Raf [2] is 0.1-10. Besides, in the data set on B-Raf [2], the “Biochemical activity ratio B/C” value is given as over 10. In addition, on B-Raf V600E, the “Biochemical activity ratio V600E/C” value is given as over 10. The “turbidity threshold (L, M, H) 1.4” value in [3] is on record as “M (moderate solubility if the threshold concentration is 31.3 μM to 250 μM)”. Besides, the “turbidity threshold (L, M, H) 4.5” value in data set [3] is given as “L (low solubility if the threshold concentration is <31.3 μM)”. Moreover, the “turbidity threshold (L, M, H) 6.8” value in data set [3] is reported as “L (low solubility if the threshold concentration is <31.3 μM)”. The “turbidity threshold (L, M, H) 7.4” value in data set [3] is listed as “L (low solubility if the threshold concentration is <31.3 μM)”.

Take `O=C(c1c(F)ccc(NS(=O)(=O)c2ccc(C(F)(F)F)cc2)c1F)c1c[nH]c2ncnc(NC3COC3)c12` [P-1050, N-{2,4-Difluoro-3-[4-(oxetan-3-ylamino)-7H-pyrrolo[2,3-d]pyrimidine-5-carbonyl]-phenyl}-4-trifluoromethyl-benzenesulfonamide]: the IC50 is under 0.1 µM at B-Raf [1]; under 0.1 µM against B-Raf V600E; under 0.1 µM on c-Raf-1; over 10 µM at CYP1A2 (read-out: Cyp IC50 1A2, CYP1A2, substrate CEC); over 10 µM at CYP2C19 (setting [4]); over 10 µM on CYP2C9 (setting [6]). The IC50 on CYP2D6, on CYP3A4(BFC) (setting [5]) and on CYP3A4(BQ) was over 10 µM each time. Also, the “Biochemical activity ratio B/V600E” value in the data set on B-Raf [2] is given as 0.1-10. In addition, the “Biochemical activity ratio B/C” value with B-Raf [2] is over 10. Further, the “Biochemical activity ratio V600E/C” value on B-Raf V600E is recorded as over 10. Besides, in data set [3], the “turbidity threshold (L, M, H) 1.4” value was “H (high solubility if the threshold concentration is >250 μm)”. For the same molecule, the “turbidity threshold (L, M, H) 4.5” value in [3] is reported as “M (moderate solubility if the threshold concentration is 31.3 μM to 250 μM)”. The “turbidity threshold (L, M, H) 6.8” value in data set [3] is “M (moderate solubility if the threshold concentration is 31.3 μM to 250 μM)”. Moreover, in data set [3], the “turbidity threshold (L, M, H) 7.4” value is reported as “M (moderate solubility if the threshold concentration is 31.3 μM to 250 μM)”.

On to `CN(C)c1ncnc2[nH]cc(C(=O)c3c(F)ccc(NS(=O)(=O)c4ccc(C(F)(F)F)cc4)c3F)c12` [P-1049, N-[3-(4-Dimethylamino-7H-pyrrolo[2,3-d]pyrimidine-5-carbonyl)-2,4-difluoro-phenyl]-4-trifluoromethyl-benzenesulfonamide], for which the IC50 was over 0.1 µM on B-Raf [1]; over 0.1 µM at B-Raf V600E; over 0.1 µM on c-Raf-1; over 10 µM on CYP1A2 (human, 15 min); over 10 µM at CYP2C19 (setting [4]); over 10 µM on CYP2C9 (setting [6]). In addition, the IC50 on CYP2D6, at CYP3A4(BFC) (setting [5]) and at CYP3A4(BQ) was over 10 µM in each case. In addition, the “Biochemical activity ratio B/V600E” value in the data set on B-Raf [2] was 0.1-10. The “Biochemical activity ratio B/C” value in the data set with B-Raf [2] was over 10. Also, at B-Raf V600E, the “Biochemical activity ratio V600E/C” value is on record as over 10. For the same molecule, the “turbidity threshold (L, M, H) 1.4” value in data set [3] is recorded as “M (moderate solubility if the threshold concentration is 31.3 μM to 250 μM)”. Moreover, the “turbidity threshold (L, M, H) 4.5” value in data set [3] was “M (moderate solubility if the threshold concentration is 31.3 μM to 250 μM)”. In addition, the “turbidity threshold (L, M, H) 6.8” value in [3] was “M (moderate solubility if the threshold concentration is 31.3 μM to 250 μM)”. Further, the “turbidity threshold (L, M, H) 7.4” value in [3] is reported as “M (moderate solubility if the threshold concentration is 31.3 μM to 250 μM)”.

`Cc1ncnc2[nH]cc(C(=O)c3c(F)ccc(NS(=O)(=O)c4ccc(C(F)(F)F)cc4)c3F)c12` [P-1001, N-[2,4-Difluoro-3-(4-methyl-7H-pyrrolo[2,3-d]pyrimidine-5-carbonyl)-phenyl]-4-trifluoromethyl-benzenesulfonamide]: the IC50 against B-Raf [1] was under 0.1 µM; on B-Raf V600E it was over 0.1 µM; against c-Raf-1, under 0.1 µM; against CYP1A2 (human, 15 min), over 10 µM; at CYP2C19 (setting [4]) it was over 10 µM; at CYP2C9 (setting [6]) it was over 10 µM. Further, the IC50 on CYP2D6 is over 10 µM; at CYP3A4(BFC) (setting [5]) it was under 5 µM; at CYP3A4(BQ), over 10 µM. For the same molecule, the “Biochemical activity ratio B/V600E” value with B-Raf [2] is 0.1-10. In addition, in the data set with B-Raf [2], the “Biochemical activity ratio B/C” value is 0.1-10. For the same molecule, the “Biochemical activity ratio V600E/C” value on B-Raf V600E is reported as over 10. Further, the “turbidity threshold (L, M, H) 1.4” value in data set [3] is “H (high solubility if the threshold concentration is >250 μm)”. Besides, the “turbidity threshold (L, M, H) 4.5” value in [3] is “M (moderate solubility if the threshold concentration is 31.3 μM to 250 μM)”. For the same molecule, the “turbidity threshold (L, M, H) 6.8” value in data set [3] is given as “M (moderate solubility if the threshold concentration is 31.3 μM to 250 μM)”. For the same molecule, in [3], the “turbidity threshold (L, M, H) 7.4” value is listed as “M (moderate solubility if the threshold concentration is 31.3 μM to 250 μM)”.

For `CCn1cc(Nc2ncnc3[nH]cc(C(=O)c4c(F)ccc(NS(=O)(=O)c5ccc(C(F)(F)F)cc5)c4F)c23)cn1` [P-1063, N-{3-[4-(1-Ethyl-1H-pyrazol-4-ylamino)-7H-pyrrolo[2,3-d]pyrimidine-5-carbonyl]-2,4-difluoro-phenyl}-4-trifluoromethyl-benzenesulfonamide], the IC50 is under 0.1 µM at B-Raf [1]; over 0.1 µM against B-Raf V600E; under 0.1 µM on c-Raf-1; over 10 µM against CYP1A2 (human, 15 min); 5 to 10 µM against CYP2C19; 5 to 10 µM against CYP2C9. Also, the IC50 on CYP2D6 is over 10 µM; at CYP3A4(BFC), 5 to 10 µM; on CYP3A4(BQ), under 5 µM. Besides, the “Biochemical activity ratio B/V600E” value in the data set on B-Raf [2] is 0.1-10. In addition, the “Biochemical activity ratio B/C” value with B-Raf [2] is reported as over 10. In addition, the “Biochemical activity ratio V600E/C” value on B-Raf V600E is recorded as over 10. Further, the “turbidity threshold (L, M, H) 1.4” value in data set [3] was “L (low solubility if the threshold concentration is <31.3 μM)”. For the same molecule, in [3], the “turbidity threshold (L, M, H) 4.5” value is recorded as “L (low solubility if the threshold concentration is <31.3 μM)”. In addition, the “turbidity threshold (L, M, H) 6.8” value in [3] is on record as “L (low solubility if the threshold concentration is <31.3 μM)”. In addition, in data set [3], the “turbidity threshold (L, M, H) 7.4” value is reported as “L (low solubility if the threshold concentration is <31.3 μM)”.
